The record followed here is patent US20240000767A1, “COMBINATION OF AN ALPHA2-ADRENOCEPTOR SUBTYPE C (ALPHA-2C) ANTAGONIST WITH A TASK1/3 CHANNEL BLOCKER FOR THE TREATMENT OF SLEEP APNEA” (Bayer Aktiengesellschaft, priority 2020, published 2024).

Test [1] deals with anaesthetized, spontaneously breathing pigs. The experiment in a line: Pig model of obstructive sleep apnea (OSA): upper airway collapsibility under negative pressure. In kind it is in vivo, German Landrace pigs.
Source text: B-3 Animal Model of Obstructive Sleep Apnoea in the Pig
Using negative pressure, it is possible to induce collapse and thus obstruction of the upper respiratory tract in anesthetized, spontaneously breathing pigs [Wirth et al., Sleep 36, 699-708 (2013)].
German Landrace pigs are used for the model. The pigs are anesthetized and tracheotomized. One cannula each is inserted into the rostral and the caudal part of the trachea. Using a T connector, the rostral cannula is connected on the one hand to a device generating negative pressures and on the other hand to the caudal cannula. Using a T connector, the caudal cannula is connected to the rostral cannula and to a tube which allows spontaneous breathing circumventing the upper respiratory tract. By appropriate closing and opening of the tubes it is thus possible for the pig to change from normal nasal breathing to breathing via the caudal cannula during the time when the upper respiratory tract is isolated and connected to the device for generating negative pressures. The muscle activity of the musculus genioglossus is recorded by electromyogram (EMG).
(§1) At certain points in time, the collapsibility of the upper respiratory tract is tested by having the pig breathe via the caudal cannula and applying negative pressures of −50, −100 and −150 cm water head (cmH2O) to the upper respiratory tract. This causes the upper respiratory tract to collapse, which manifests itself in an interruption of the airflow and a pressure drop in the tube system. This test is conducted prior to the administration of the test substance and at certain intervals after the administration of the test substance. An appropriately effective test substance can prevent this collapse of the respiratory tract in the inspiratory phase.
Administration of the test substance can be intranasal, intravenous, subcutaneous, intraperitoneal, intraduodenal or intragastral.
The therapeutic potential of the combination of an α2-Adrenoceptor subtype C (alpha-2C) antagonists with a TASK⅓ channel blocker according to the present invention in sleep apnea can be assessed preclinically in a pig model of obstructive sleep apnea (OSA).
Using negative pressure, it is possible to induce collapse and thus obstruction of the upper respiratory tract in anaesthetized, spontaneously breathing pigs (Wirth K. J. et al., Sleep 36(5) (2013) pp. 699-708).
German Landrace pigs are used for the model. The pigs are anaesthetized and tracheotomized. Two tracheal cannulas are inserted into the trachea, one into the rostral part and the other into the caudal part of the trachea. Using a connection piece, the rostral cannula is connected to a tube to the negative pressure device and to the distal tracheal cannula. The distal tracheal cannula is additionally connected to a tube with an open end to atmosphere via a connection piece that served for free tracheal breathing, circumventing the upper airway. By appropriate opening and clamping of those tubes breathing can be switched from nasal breathing to breathing through the caudal tracheal cannula, circumventing the upper airway, and the (isolated) upper airway can be connected to the negative pressure device, causing airflow in the inspiratory direction.
as §1, with “(cm H2O)” for “(cmH2O)”

The target of the next test is human ADRA2C receptor (Homo sapiens (Human), UniProt P18825). The experiment in a line: In vitro activity assay to determine the inhibition of recombinant ADRA2C (CHO-K1 cells, aequorin bioluminescence). In kind it is cell-based. The conditions noted are these: inhibition of noradrenaline-induced bioluminescence signal; some mean values from multiple determinations; read-out: ARα2C IC50. In short, it runs like this: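 IC50 is the concentration halving the agonist (noradrenaline)-evoked rise in aequorin luminescence, fitted by 4-parameter Hill function. Read in stable Gαq/aequorin CHO-K1 cells expressing recombinant human ADRA2C.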

[2] abbreviates: 15 μg/kg i.v. bolus then 5 μg/kg/h i.v. infusion for four hours from 0 min, time 0 min.
Setting [3] is: 15 μg/kg i.v. bolus then 5 μg/kg/h i.v. infusion for four hours from 0 min, time 30 min.
Setting [4] is: 15 μg/kg i.v. bolus then 5 μg/kg/h i.v. infusion for four hours from 0 min, time 60 min.
Setting [5] is: 15 μg/kg i.v. bolus then 5 μg/kg/h i.v. infusion for four hours from 0 min, time 90 min.
[6] abbreviates: 15 μg/kg i.v. bolus then 5 μg/kg/h i.v. infusion for four hours from 0 min, time 120 min.
[7] abbreviates: 0.3 μg intranasal at 0 min, time 0 min.
Setting [8] is: 0.3 μg intranasal at 0 min, time 10 min.
Where [9] appears, read: 0.3 μg intranasal at 0 min, time 30 min.
The mark [10] stands for this setting: 0.3 μg intranasal at 0 min, time 60 min.
The mark [11] stands for this setting: 0.3 μg intranasal at 0 min, time 90 min.

human ADRA2C receptor, sequence (P18825 whole entry): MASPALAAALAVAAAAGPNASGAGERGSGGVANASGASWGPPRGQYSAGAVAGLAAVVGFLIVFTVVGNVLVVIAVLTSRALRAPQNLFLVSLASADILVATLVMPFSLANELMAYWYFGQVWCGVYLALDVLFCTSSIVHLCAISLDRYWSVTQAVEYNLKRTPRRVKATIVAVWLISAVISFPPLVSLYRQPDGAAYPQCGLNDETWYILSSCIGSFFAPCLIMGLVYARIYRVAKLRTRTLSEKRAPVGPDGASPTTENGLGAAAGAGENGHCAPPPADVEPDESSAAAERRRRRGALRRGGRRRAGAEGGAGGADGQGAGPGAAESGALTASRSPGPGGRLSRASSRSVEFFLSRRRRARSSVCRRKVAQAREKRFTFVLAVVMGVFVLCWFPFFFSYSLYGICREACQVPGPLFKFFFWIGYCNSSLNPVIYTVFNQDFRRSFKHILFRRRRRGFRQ

Regarding `COCC1CCCN(C2CCN(c3ncc(C(=O)NCc4ncc(F)cc4F)s3)CC2)C1` (centres unmarked), the “Percent pigs without collaps −50 cm H2O” value in test [1] (setting [2]) is 0%; in test [1] (setting [3]), 0%; in test [1] (setting [4]) it was 0%; in test [1] (setting [5]) it was 50%; in test [1] (setting [6]), 0%. For the same compound, the “Percent pigs without collaps −100 cm H2O” value was 0% in test [1] (setting [2]); 0% in test [1] (setting [3]); 0% in test [1] (setting [4]); 50% in test [1] (setting [5]); 0% in test [1] (setting [6]). The “Percent pigs without collaps −150 cm H2O” value came to 0% in test [1] (setting [2]); 0% in test [1] (setting [3]); 0% in test [1] (setting [4]); 50% in test [1] (setting [5]); 0% in test [1] (setting [6]). Also, in test [1] (third set, 15 μg/kg i.v. bolus followed by i.v. infusion of 5 μg/kg/h for four hours, alone), the “time points at which upper airway collapsibility was inhibited at all negative pressures of −50, −100 and −150 cm H2O in all pigs” value was “at no time point”.
As for `COc1ccc(Cl)c(C(=O)N2C3CCC2CN(Cc2c(-c4ccc(C(C)C)cc4)nc4ncccn24)C3)n1` [(3-chloro-6-methoxypyridin-2-yl)(3-{[2-(4-isopropylphenyl)imidazo[1,2-a]pyrimidin-3-yl]methyl}-3,8-diazabicyclo[3.2.1]oct-8-yl)methanone], the “Percent pigs without collaps −50 cm H2O” value in test [1] (setting [7]) was 0%; in test [1] (setting [8]) it was 33%; in test [1] (setting [9]), 0%; in test [1] (setting [10]) it was 0%; in test [1] (setting [11]) it was 0%. Moreover, the “Percent pigs without collaps −100 cm H2O” value in test [1] (setting [7]) is 0%; in test [1] (setting [8]) it was 33%; in test [1] (setting [9]) it was 0%; in test [1] (setting [10]), 0%; in test [1] (setting [11]) it was 0%. In addition, the “Percent pigs without collaps −150 cm H2O” value in test [1] (setting [7]), in test [1] (setting [8]), in test [1] (setting [9]), in test [1] (setting [10]) and in test [1] (setting [11]) was 0% in each case.
In the case of `COc1cccc(C(=O)N2CCN(Cc3c(-c4ccc(Cl)cc4)nc4ccccn34)CC2)n1` [(4-{[2-(4-chlorophenyl)imidazo[1,2-a]pyridin-3-yl]methyl}piperazin-1-yl)(6-methoxypyridin-2-yl)methanone], the “Percent pigs without collaps −50 cm H2O” value in test [1] (setting [7]), in test [1] (setting [8]), in test [1] (setting [9]) and in test [1] (setting [10]) was 0% in each case. Also, the “Percent pigs without collaps −100 cm H2O” value in test [1] (setting [7]), in test [1] (setting [8]), in test [1] (setting [9]) and in test [1] (setting [10]) was 0% in each case. The “Percent pigs without collaps −150 cm H2O” value in test [1] (setting [7]), in test [1] (setting [8]), in test [1] (setting [9]) and in test [1] (setting [10]) was 0% in each case.
With `C[C@@H]1CCCN(C2CCN(c3ncc(C(=O)NC4(c5ncc(F)cc5F)CC4)s3)CC2)C1` [Example 129, N-[1-(3,5-Difluoropyridin-2-yl)cyclopropyl]-2-[(3R)-3-methyl[1,4′-bipiperidin]-1′-yl]-1,3-thiazole-5-carboxamide], the IC50 (usually the point on the concentration scale where inhibition reaches its midpoint) at human ADRA2C receptor is 10 nM.
Still for that read-out and setting: the value for `CCc1nc(N2CCC(N3CCC[C@@H](C)C3)CC2)sc1C(=O)NCc1ncc(F)cc1F` [Example 130, N-[(3,5-Difluoropyridin-2-yl)methyl]-4-ethyl-2-[(3R)-3-methyl[1,4′-bipiperidin]-1′-yl]-1,3-thiazole-5-carboxamide] was 0.54 nM.
On the same count and under the same terms, for `O=C(NCc1ncc(F)cc1F)c1cnc(N2CCC(N3CCCC4(C3)CC4(F)F)C(F)C2)s1` (centres unmarked) [Example 134, diamix-2-[4-(1,1-Difluoro-5-azaspiro[2.5]octan-5-yl)-3-fluoropiperidin-1-yl]-N-[(3,5-difluoropyridin-2-yl)methyl]-1,3-thiazole-5-carboxamide] the value was 0.74 nM.
Same read-out and setting: the value for `O=C(NCc1ncc(F)cc1F)c1cnc(N2CCC(N3CCCC4(COC4)C3)CC2)s1` [Example 136] was 320 nM; that for `O=C(NCc1ncc(F)cc1F)c1cnc(N2CCC(N3CCCC(C4CC4)C3)CC2)s1` (centres unmarked) [Example 137] was 19 nM; that for `O=C(NCc1ncc(F)cc1F)c1cnc(N2CCC(N3CCCC(C4CCC4)C3)CC2)s1` (centres unmarked) [Example 138] was 6.5 nM.
For `O=C(NCc1ncc(F)cc1F)c1cnc(N2CCC(N3CCc4ccc(Cl)cc4C3)CC2)s1` [Example 139], at human ADRA2C receptor, the IC50 was 0.65 nM.
On the same count and under the same terms, for `O=C(NCc1ncc(F)cc1F)c1cnc(N2CCC(N3CCc4cccc(Cl)c4C3)CC2)s1` [Example 141] the value was 8.7 nM; for `O=C(NCc1ncc(F)cc1F)c1cnc(N2CCC(N3CCc4c(Cl)cccc4C3)CC2)s1` [Example 142], 6.7 nM; for `O=C(NCc1ncc(F)cc1F)c1cnc(N2CCC(N3CCc4cccc(F)c4C3)CC2)s1` [Example 144], 1.8 nM.
On the same count and under the same terms, the value for `COc1ccc2c(c1)CCN(C1CCN(c3ncc(C(=O)NCc4ncc(F)cc4F)s3)CC1)C2` [Example 145] was 1 nM; that for `Cc1ccc2c(c1)CCN(C1CCN(c3ncc(C(=O)NCc4ncc(F)cc4F)s3)CC1)C2` [Example 146] was 1.72 nM; that for `COCCC1CCCN(C2CCN(c3ncc(C(=O)NCc4ncc(F)cc4F)s3)CC2)C1` (centres unmarked) [Example 148] was 1.3 nM.
On to `CC(C)(C)C1CCCN(C2CCN(c3ncc(C(=O)NCc4ncc(F)cc4F)s3)CC2)C1` (centres unmarked) [Example 149], for which the IC50 on human ADRA2C receptor came to 35 nM.
On to `C[C@@H]1CCCN(C2CCN(c3ncc(C(=O)N(C)Cc4ncc(F)cc4F)s3)CC2)C1` [Example 150], for which the IC50 on human ADRA2C receptor was 200 nM.
The same measure, in the same setting: for `C[C@@H]1CCCN(C2CCN(c3ncc(C(=O)NCc4ccccc4Cl)s3)CC2)C1` [Example 151] the value was 170 nM.
